From US20020106347A1, “Cytokines and their use in treatment and/or prophylaxis of breast cancer” (priority 1995, published 2002)

Key:
Format in all cases: cell-based, human
[1] = tested on: primary normal breast cells; assay: Growth of primary normal breast cells in suspension culture; settings: serum free breast media, 7 days
Experimental: FIG. 6 is a graphical representation of primary normal breast cells in suspension culture. 10^4 primary normal breast cells were cultured in 500 μl serum free breast media containing the indicated concentration of each of the growth factors (OSM and […]). After 7 days culture viable cells were counted using a hemacytometer. Cell numbers reported here are the results of 1 experiment, performed in triplicate.
Sterile normal breast tissue was obtained from reduction mammoplasty surgery. […] After 18 hours the mixture was centrifuged at 600 RCF/5 min, the supernatant discarded and the remaining cell pellet washed twice in RPMI-1640 supplemented with 10% (v/v) (v/v) BCS. […] Single cells adhered to the culture flasks and from these islands of cells epithelial cells grew. The media was subsequently removed and replaced with serum-free breast media. Partial trypsinisation removed any contaminating fibroblasts and the cells remaining were 95-100% epithelial. Cells were subsequently grown for approximately 30 days in the serum free breast media.

MCF-7 cells = assay: Northern analysis of mRNA expression after OSM; settings: OSM 10 ng/ml
Experimental: (§1) FIG. 12 is a photographic representation showing effect of OSM on the expression of Transforming Growth Factor α (TGFα), Epidemal Growth Factor Receptor (EGFR), Prolactin Receptor (PRLR), Estrogen Receptor (ER) and LIF mRNA. Cells growing in the presence of 10% (v/v) BCS were treated with OSM (10 ng/ml) and at the indicated time points duplicate 150 cm^2 flasks were harvested and mRNA extracted for Northern analysis. Results for control cells (C) are also shown. The same filter has been probed successively with a ^32P-labelled cDNA corresponding to each mRNA species. mRNA loading was evaluated by reprobing the filter with a fragment complementary to GAPDH. mRNA species of the following sizes were obtained: TGFα, 4.8 kb; PRLR, 10.5 and 8.6 kb; EGFR, 10.5 and 5.8 kb; ER, 6.5 and 3.8 kb and LIF, approx. 4.8 kb.
Cells havested from duplicate flasks were pooled and poly A+ mRNA extracted by an oligo-dT cellulose procedure (Boehringer Mannheim). Northern analysis was performed using 5 μg RNA per lane. Membranes (Hybond-C extra-Amersham) were hybridised (42° C. overnight) with probes labelled with α-^32P dCTP (bresatec). The membranes were washed at a stringency of 0.2× SSC (30 mM NaCl, 3 mM sodium citrate, pH 7.0)-0.1% (w/v) sodium dodecyl sulfate at 65° C. and exposed to Kodak X-Omat film at −70° C. mRNA loading was estimated by hybridising membranes with a 1.3 kb cDNA complementary to GAPDH.
as §1, with “Cells” for “FIG. 12 is a photographic representation showing effect of OSM on the expression of Transforming Growth Factor α (TGFα), Epidemal Growth Factor Receptor (EGFR), Prolactin Receptor (PRLR), Estrogen Receptor (ER) and LIF mRNA. Cells”

BT-549 = assay: Cell morphology after exposure to OSM; settings: BT-549 exposed to OSM
Text: (§2) The action of IL-6, LIF, OSM CNTF and IL-11 was examined on 4 breast cancer cell lines grown in monolayer culture. Striking changes in the morphology of cells were observed. FIG. 15 compares morphology of untreated cells with cells exposed to OSM. […] This was associated with the appearance of decreased intercellular adhesion or cellular contraction. These changes were quite marked by day 14.

T-47D cells = assay: Cell morphology after exposure to OSM; settings: T-47D cultured with OSM
Text: as §2

MDA-MB-231 cells = assay: Cell morphology after exposure to OSM; settings: MDA-MB-231 exposed to OSM
Experimental: FIG. 15 is a photographic representation showing cell morphology after exposure to OSM. MCF-7 cells from control cultures (Panel A) and appearance of cells after culture for 14 days in OSM (10 ng/ml) (Panel B). MDA-MB-231 cells from control cultures (Panel C) and appearance of cells after culture for 7 days in OSM (Panel D).
as §2

[2] = from 2 hours, maintained for 48 hours

oncostatin M [OSM]
effect on proliferation (in words) [1]: profoundly inhibited the proliferation
abundance of TGFα transcript (in words) (MCF-7 cells): equivalent to control cells
level of LIF transcript (in words) (MCF-7 cells): upregulates
elevation of EGFR mRNA abundance (MCF-7 cells; between 4-12 hours): at least 5 fold
level of expression of Estrogen Receptor (ER) mRNA (in words) (MCF-7 cells; [2]): down regulate
level of expression of Prolactin Receptor (PRLR) mRNA (in words) (MCF-7 cells; [2]): down regulate
cell morphology (in words) (BT-549): Transformation to a fibroblastic phenotype
cell morphology (in words) (T-47D cells): more rounded in appearance
cell morphology (in words) (MDA-MB-231 cells): Transformation to a fibroblastic phenotype
